Like-named read-outs stand apart in the source and are kept apart here.
Key:
Swiss-Webster male mice [1] = assay: Mouse Activity and Screen Test (MAST): inhibition of spontaneous locomotion (LI); type: in vivo; conditions: for Inhibition of mouse locomotor activity: one hour prior to testing, vs vehicle; for minimal effective dose: Mus musculus, ip, read-out: MAST LI LAD
Procedure: (§1) Treatments are administered intraperitoneally one hour prior to testing. […] Compounds are dissolved or suspended in 0.2% Methocel. Control animals are injected with Methocel.
Immediately following the screen test, the final phase of testing is initiated by placing each group of three mice in one actophotometer (Life Sciences, 22, 1067-1076, 1978). The actophotometer consists of a cylindrical chamber whose center is occupied by another cylinder which contains the illumination for six photocells located on the perimeter of the chamber. Six light-beam interruptions equal one count. Locomotor activity is recorded by computer at ten minute intervals for 60 minutes. […]

Swiss-Webster male mice [2] = assay: Mouse Activity and Screen Test (MAST): screen test (ST); type: in vivo; conditions: for Inhibition of screen test failure: percent of mice falling off the screen; for MAST ST LAD: lowest dose at which an A rating (60-100%) is achieved, screen test, intraperitoneally
Procedure: as §1
The compounds are identified in the Examples.

rat heart = assay: Coronary blood flow (PCS2A): isolated perfused heart; conditions: for EC50: isolated perfused rat heart
Procedure: CORONARY BLOOD FLOW (PCS2A)
Male rats (400-600 gms) are pretreated with Na haparin 2000 units and anesthetized with Na pentobarbital (50 mg/kg) administered intraperitoneally. Once anesthetized, the rat heart is rapidly excised, the ascending aorta fitted to the aortic perfusion cannula, and […] with a ligature. The coronary arteries are perfused initially at a rate of about 15 ml/min for two to three minutes, afterwhich they are perfused at constant pressure of 70 mm Hg and temperature of 37°C. The electrocardiogram (ECG) is recorded using two platinum electrodes positioned at the base and apex of the left ventricle. A second heart is excised, cannulated, and perfused by the same method outlined above. Both hearts are tested in parallel. The standard physiological salt solution (PSS) is a modified Krebs-Hanseleit bicarbonate buffer of the following composition in mM concentration: NaCI, 127; NaHC03, 25; dextrose, 5.5; Na Pyruvate, 2.0: KCI, 4.7; MgS04, 1.1; KH 2P04, 1.2; CaCl2·2H2O, 2.5; CaNa2 EDTA, 0.05.
A 30-minute stabilization period is observed before starting the test protocol.
The microprocessor control system is a servo mechanism which permits coronary perfusion pressure (CPP) and drug concentration to be maintained constant independent of changes in coronary flow. The level at which CPP and drug concentration are maintained can be changed by commands communicated through the microprocessor keyboard. Dose-response curves are carried out by perfusing concentrated drug solution (DC) at rates proportional to total coronary flow (CFT). Drug concentrations are increased by proportionate increases in the rate of DC infusion over CFT via the microprocessor keyboard. The proportional flow rates for DC:CFT is about .0002:1 at the low end and .02: at the high end of the dose-response curve. Dose-response curves encompassing at least two log doses are carried out by preparing two DCs with a concentration difference of 1:100. Following the first dose range of two log doses, the DC are switched, proportional pumping rate adjusted, and the dose-response curve continued for another two log doses. The standard dose-response curve is carried out in one-half log dose increments starting at a subthreshold dose and ending at a dose which produces near maximal response in activity. Standard reference compounds are tested over the range of 10-^9 to 10-^6M.
Measurements are for heart rate (HR) and coronary flow (CF). Units are: HR, beats/minute (bpm) and CF, milliliters/minute (ml/min). HR is calculated from the ECG strip chart recording and CF is calculated by recording analog outputs from pumps 1 and 2. Outputs from pump #1 = CFT and the output from pump #2 = CF for heart B (CFg). CF for heart A (CFA) is calculated (CFT - CFB = CFA).
Using the above technique, the effects of the compound of Examples 1 and 2 are as follows: […]

conscious rat = assay: Antihypertensive evaluation (AHP3): aortic blood pressure and heart rate; type: in vivo; conditions: lowest dose tested at which a >10% reduction in blood pressure for four consecutive hours is achieved; conscious rat; read-out: AHP3 BP LAD
Description: […] EVALUATION (AHP3)
This test procedure is described in the following paragraphs.
A Method for the Direct Monitoring of Aortic Blood Pressure and Heart Rate from Conscious Rats
The continuous monitoring of pulsatile blood pressure (BP) from unrestrained conscious rats surgically equipped with polyethylene cannulas was accomplished by means of a computer assisted data capture scheme (CADCS). The absic elements of the methodology are the cannulation procedure and the CADCS.
Cannulation Procedure: Rats were anesthetized with Telazol (1:1 tiletamine HCI and zolazepam HCI); 20-40 mg/kg IM and the descending aorta exposed via a midline incision. Cannulas fabricated from polyethylene tubing were inserted into the aorta via an undersized puncture hole below the renal arteries. The puncture hole was made by a 23 G disposable needle with a section of the aorta clamped off above and below the puncture site. The cannulas, consisting of a PE100 (0.86 mm ID) body and a PE50 (0.58 mm ID) tip, were attached to a trocar, inserted through the psoas muscle, and passed subcutaneously along the midline of the back and externalized between the ears. The cannulas were anchored to the psoas muscle and between the scalulae (3-0 green braided suture). The midline incision was closed in two steps (muscle first, skin second) using continuous over-and over sutures (4-0 chronic). Each rat was then given penicillin 30,000 units subcutaneously (Penicillin G Procaine Sterile Suspension).
The rats were fitted with a harness-spring-swivel assembly designed to protect the cannula and to provide the rat relative freedom of movement. The harnesses were fabricated from nylon hook and loop tape cemented to a metal plate to which spring wires (18-8 stainless steel), were attached to brass swivels. Each polyethylene cannula was channeled through a spring and connected through a swivel to a pressure transducer (Model P23Gb; Statham Instruments; Hato Rey, Puerto Rico) and an infusion pump (Sage model 234-7; Orion Research, Cambridge, Ma) by means of PE100 tubing. While on test, each rat received a continuous slow infusion of heparinized saline solution (approximately 400 I or 40 units of heparin per 24 hour period) to prevent clot formation. Additional "flushes" of the cannula with heparinized saline were carried out when the aortic pulse pressure (systolic minus diastolic) was less than 25 mm Hg.
CADCS: The pulsatile blood pressure and heart rate of each of 32 rats was monitored every minute by means of two in-laboratory microcomputers communicating directly with a data concentrator computer. The data were first stored on the data concentrator disk and then transferred to a magnetic tape for analysis and report generation by the main research computer. The overall scheme involved modulating the primary signal from the pressure transducer, generating the primary data set of the one-minute values for systolic, diastolic, and mean blood pressures and heart rate by the in-lab microcomputer and the storage, analysis, and report generation by the main research computer.
The transducers were connected to analog signal conditioning modules. The modules providing a regulated excitation voltage for the transducers, amplification as required to interface the microprocessors and an active low pass filter to compensate for the pressure wave form distortion produced by the flexible, fluid filled, narrow cannula.
The microcomputers (one for each of two groups of 16 rats) were connected to the input components through the module interface units, an analog-to-digital converter for the pressure wave form signal and the digital inputs for the dose and event marker switches. The microcomputer controlled the sequential acquisition of data from the modular interface units through an internal synchronous time-of-day clock/ time base generator. […]

[3] = coronary flow, read-out: PCS2A CF ED50
[4] = heart rate, read-out: PCS2A HR ED50

Structure (SMILES)	minimal effective dose (Swiss-Webster male mice [1]) [mg/kg]	MAST ST LAD (Swiss-Webster male mice [2]) [mg/kg]	EC50 (rat heart; [3]) [nM]	EC50 (rat heart; [4]) [nM]	minimal effective dose (conscious rat) [mg/kg]	further results
OC[C@H]1O[C@@H](n2cnc3c(NCCC(c4ccccc4)c4ccccc4)ncnc32)[C@H](O)[C@@H]1O [Example 2, N^6-(3,3-Diphenylpropyl)adenosine]	100	>100	3000	6000	> 30	Inhibition of mouse locomotor activity (Swiss-Webster male mice [1]; 10 mg/kg intraperitoneally): −9%; Inhibition of mouse locomotor activity (Swiss-Webster male mice [1]; 30 mg/kg intraperitoneally): 13%; Inhibition of mouse locomotor activity (Swiss-Webster male mice [1]; 100 mg/kg intraperitoneally): 60%; Inhibition of screen test failure (Swiss-Webster male mice [2]; 10 mg/kg intraperitoneally): 0%; Inhibition of screen test failure (Swiss-Webster male mice [2]; 30 mg/kg intraperitoneally): 0%; Inhibition of screen test failure (Swiss-Webster male mice [2]; 100 mg/kg intraperitoneally): 0%; activation at 1 µM (rat heart; Dose 1 × 10^-6 Molar, coronary flow change, isolated rat heart, read-out: CF): 47%; activation at 0.1 µM (rat heart; Dose 1 × 10^-7 Molar, coronary flow change, isolated rat heart, read-out: CF): 42%; activation at 0.01 µM (rat heart; Dose 1 × 10^-8 Molar, coronary flow change, isolated rat heart, read-out: CF): 26%; activation at 3 µM (rat heart; Dose 3 × 10^-6 Molar, coronary flow change, isolated rat heart, read-out: CF): 48%
OC[C@H]1O[C@@H](n2cnc3c(NCCCC(c4ccccc4)c4ccccc4)ncnc32)[C@H](O)[C@@H]1O [Example 6, N^6-(4,4-Diphenylbutyl)adenosine]	100	>100	14	> 1000	> 30	–
OC[C@H]1O[C@@H](n2cnc3c(NCCCCC(c4ccccc4)c4ccccc4)ncnc32)[C@H](O)[C@@H]1O [Example 7, N^6-(5,5-Diphenylpentyl)adenosine]	100	>100	> 3000	3000	> 10	–
Cc1cccc(C(CNc2ncnc3c2ncn3[C@@H]2O[C@H](CO)[C@@H](O)[C@H]2O)c2ccccc2)c1 (stereo partly shown) [Example 9, N^6-(2-(3-Methylphenyl)-2-phenylethyl)adenosine]	≤ 10	100	–	–	–	–
OC[C@H]1O[C@@H](n2cnc3c(NCC(c4ccccc4)c4ccc(F)cc4)nc(Cl)nc32)[C@H](O)[C@@H]1O (stereo partly shown) [Example 11, N^6-(2-(4-Fluorophenyl)-2-phenylethyl)-2-chloroadenosine]	30	>100	50	> 3000	10	–
OC[C@H]1O[C@@H](n2cnc3c(NCC(c4ccc(F)cc4)c4ccc(F)cc4)ncnc32)[C@H](O)[C@@H]1O [Example 13, ^N'-(^2,2-Di-(4-fluorophenyl)ethyl)adenosine]	3	>100	–	–	10	–
OC[C@H]1O[C@@H](n2cnc3c(NCC(c4ccccc4)c4cccc(Cl)c4)ncnc32)[C@H](O)[C@@H]1O (stereo partly shown) [Example 14, N^6-(2-(3-Chlorophenyl)-2-phenylethyl)adenosine]	1	>100	–	–	–	–
Nc1nc(NCC(c2ccccc2)c2ccc(Cl)cc2)c2ncn([C@@H]3O[C@H](CO)[C@@H](O)[C@H]3O)c2n1 (stereo partly shown) [Example 16, N^6-(2-(4-Chlorophenyl)-2-phenylethyl)-2-aminoadenosine]	100	>100	–	–	> 10	–
OC[C@H]1O[C@@H](n2cnc3c(NCC(c4ccc(Cl)cc4)c4ccc(Cl)cc4)ncnc32)[C@H](O)[C@@H]1O [Example 17, N^6-(2,2-Di(4-chlorophenyl)ethyl)adenosine]	100	>100	> 3000	> 3000	–	–
Nc1nc(NCC(c2ccc(Cl)cc2)c2ccc(Cl)cc2)c2ncn([C@@H]3O[C@H](CO)[C@@H](O)[C@H]3O)c2n1 [Example 18, N^6-(2,2-Di-(4-chlorophenyl)ethyl)-2-aminoadenosine]	> 30	>30	–	–	> 10	–
COC(=O)C(CNc1ncnc2c1ncn2[C@@H]1O[C@H](CO)[C@@H](O)[C@H]1O)(c1ccccc1)c1ccccc1 [Example 24, N^s-(2-Carbomethoxy-2,2-diphenylethyl)adenosine]	30	>30	> 3000	3000	–	–
O=C(OC[C@H]1O[C@@H](n2cnc3c(NCC(c4ccccc4)c4ccccc4)ncnc32)[C@H](OC(=O)c2ccccc2)[C@@H]1OC(=O)c1ccccc1)c1ccccc1 [Example 26, 2',3',5'-Tri-0-benzoyl-N^6-(2,2-diphenylethyl)adenosine]	10	>100	–	–	10	–
CC(=O)OC[C@H]1O[C@@H](n2cnc3c(NCC(c4ccccc4)c4ccccc4)nc(Cl)nc32)[C@H](OC(C)=O)[C@@H]1OC(C)=O [Example 27, 2',3',5'-Tri-O-acetyl-N^6-(2,2-diphenylethyl)-2-chloroadenosine]	30	>100	–	–	–	–
O=P(O)(O)OC[C@H]1O[C@@H](n2cnc3c(NCC(c4ccccc4)c4ccccc4)ncnc32)[C@H](O)[C@@H]1O [Example 28, N^6-(2,2-Diphenylethyl)adenosine-5'-phosphate]	≤ 3	>30	–	–	–	–
CC1(C)O[C@@H]2[C@H](O1)[C@@H](CO)O[C@H]2n1cnc2c(NCC(c3ccccc3)c3ccccc3)ncnc21 [Example 29, 2',3'-0-Isopropylidene-N6-(2,2-diphenylethyl)adenosine]	30	>100	–	–	10	–
